The text below walks through data of patent US7504400B2, “MTP inhibiting aryl piperydines or piperazines substituted with 5-membered heterocycles” (Janssen Pharmaceutica N.V., priority 2004, dated 2009).

Some results are limits rather than exact numbers.

The test system of this test is Secretion of ApoB. The experiment in a line: Quantification of the secretion of ApoB in HepG2 cells. The note with it: Homo sapiens, HepG2, 24 h, 24 hours of incubation with test compound, immunoprecipitation of apoB from medium, read-out: pIC50 value (=-log IC50 value), secretion of ApoB (converted). Type of test: cell-based. The method in brief:
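At 70% confluency, HepG2 cells in MEM with 10% FCS received compound or DMSO carrier (0.4% final) for 24 h. Secreted apoB in cleared medium immunoprecipitated with sheep anti-apoB then rabbit anti-sheep antibody (24 h each, 8° C); pellet radioactivity counted by liquid scintillation; IC50 expressed as pIC50.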
Turning to `CCCNC(=O)C(c1ccccc1)C1CCN(c2ccc(-n3cnn(CC(C)C)c3=O)cc2)CC1` (centres unmarked) [Compound 153], the IC50 is 31.6 to 316 nM.
On to `CCCNC(=O)C(c1ccccc1)C1CCN(c2ccc(-n3cnn(CC4CC4)c3=O)cc2)CC1` (centres unmarked) [Compound 154], for which the IC50 is 31.6 to 316 nM.
Regarding `CCCNC(=O)C(c1ccccc1)C1CCN(c2ccc(-n3cnn(Cc4ccccc4)c3=O)cc2)CC1` (centres unmarked) [Compound 155], the IC50 is 31.6 to 316 nM.
Under `CCCCn1ncn(-c2ccc(N3CCC(C(C(=O)NCc4ccccc4)c4ccccc4)CC3)cc2)c1=O` (centres unmarked) [Compound 156] stands 31.6 to 316 nM; under `CCCCCn1ncn(-c2ccc(N3CCC(C(C(=O)NCc4ccccc4)c4ccccc4)CC3)cc2)c1=O` (centres unmarked) [Compound 157], 31.6 to 316 nM.
Take `O=C(NCc1ccccc1)C(c1ccccc1)C1CCN(c2ccc(-n3cnn(Cc4ccccc4)c3=O)cc2)CC1` (centres unmarked) [Compound 158]: the IC50 was 31.6 to 316 nM.
Under `COC(=O)C(c1ccccc1)N1CCN(c2ccc(-n3nc(C)n(C(C)C)c3=O)cc2)CC1` (centres unmarked) [Compound 159] stands 316 to 3160 nM; under `CC(C)n1ncn(-c2ccc(N3CCN(CCCC(C(=O)Nc4ccccc4)c4ccccc4)CC3)cc2)c1=O` (centres unmarked) [Compound 160], 316 to 3160 nM; under `CCNC(=O)C(CCN1CCN(c2ccc(-n3cnn(C(C)C)c3=O)cc2)CC1)c1ccccc1` (centres unmarked) [Compound 161], 316 to 3160 nM.
In the case of `CC(C)n1ncn(-c2ccc(N3CCN(CCC(C(=O)NCc4ccccc4)c4ccccc4)CC3)cc2)c1=O` (centres unmarked) [Compound 162] it was 316 to 3160 nM; in that of `CCNC(=O)C(c1ccccc1)N1CCN(c2ccc(-n3cnn(C(C)C)c3=O)cc2)CC1` (centres unmarked) [Compound 163], 31.6 to 316 nM.
`CCCNC(=O)C(c1ccccc1)N1CCN(c2ccc(-n3cnn(C(C)C)c3=O)cc2)CC1` (centres unmarked) [Compound 164]: the 50% inhibitory concentration (IC50) is 31.6 to 316 nM.
`CC(C)n1ncn(-c2ccc(N3CCN(C(C(=O)NCc4ccccc4)c4ccccc4)CC3)cc2)c1=O` (centres unmarked) [Compound 165]: the half-inhibitory concentration (IC50) was 316 to 3160 nM.
As to `CC(C)n1ncn(-c2ccc(N3CCN(C(C(=O)NCC(F)(F)F)c4ccccc4)CC3)cc2)c1=O` (centres unmarked) [Compound 166], the concentration for half-maximal inhibition (IC50) is 316 to 3160 nM.
Take `Cn1ncn(-c2ccc(N3CCC(C(C(=O)NCc4ccccc4)c4ccccc4)CC3)cc2)c1=O` (centres unmarked) [Compound 167]: the half-inhibitory concentration (IC50) is 316 to 3160 nM.
For `CC(C)n1ncn(-c2ccc(N3CCC(C(C(=O)NCc4ccccc4)c4ccccc4)CC3)cc2)c1=O` (centres unmarked) [Compound 168], the half-maximal inhibitory concentration (IC50) is 31.6 to 316 nM.
In the case of `COC(=O)C(CCN1CCN(c2ccc(-n3cnn(C(C)C)c3=O)cc2)CC1)c1ccccc1` (centres unmarked) [Compound 169] it was 316 to 3160 nM; in that of `CC(C)n1ncn(-c2ccc(N3CCN(C(C(=O)NCC(F)(F)F)c4ccccc4)CC3)nc2)c1=O` (centres unmarked) [Compound 170], 316 to 3160 nM; in that of `COC(=O)C(c1ccccc1)N1CCC(c2ccc(-n3cnn(C(C)C)c3=O)cc2)CC1` (centres unmarked) [Compound 171], 31.6 to 316 nM.
In the case of `COC(=O)C(c1ccccc1)N1CCN(c2ccc(-n3cnn(C(C)C)c3=O)cc2)CC1` (centres unmarked) [Compound 172] it was 316 to 3160 nM.
For `COC(=O)C(c1ccccc1)(c1ccccc1)N1CCN(c2ccc(-n3cnn(C(C)C)c3=O)cc2)CC1` [Compound 173], the IC50 is 31.6 to 316 nM.
With `CCC(C)n1ncn(-c2ccc(N3CCN(C(C(=O)OC)c4ccccc4)CC3)cc2)c1=O` (centres unmarked) [Compound 174], the IC50 is 31.6 to 316 nM.
Consider `CCNC(=O)C(c1ccccc1)N1CCN(c2ccc(-n3cnn(C(C)CC)c3=O)cc2)CC1` (centres unmarked) [Compound 175], for which the IC50 was 31.6 to 316 nM.
Under `CCCC(C(=O)Nc1ccc2c(c1)CCC2)N1CCN(c2ccc(-n3cnn(C(C)C)c3=O)cc2)CC1` (centres unmarked) [Compound 177] stands 31.6 to 316 nM.
In the case of `CCC(C)n1ncn(-c2ccc(N3CCN(C(C(=O)NCC(F)(F)F)c4ccccc4)CC3)cc2)c1=O` (centres unmarked) [Compound 178] it was 31.6 to 316 nM; in that of `C=CCn1ncn(-c2ccc(N3CCC(C(C(=O)NCc4ccccc4)c4ccccc4)CC3)cc2)c1=O` (centres unmarked) [Compound 180], 31.6 to 316 nM.
As to `CC(C)Cn1ncn(-c2ccc(N3CCC(C(C(=O)NCc4ccccc4)c4ccccc4)CC3)cc2)c1=O` (centres unmarked) [Compound 181], the IC50 was 31.6 to 316 nM.
On to `O=C(NCc1ccccc1)C(c1ccccc1)C1CCN(c2ccc(-n3cnn(CC4CC4)c3=O)cc2)CC1` (centres unmarked) [Compound 182], for which the half-maximal inhibitory concentration (IC50) was 31.6 to 316 nM.
In the case of `O=C(NCc1ccccc1)C(c1ccccc1)C1CCN(c2ccc(-n3cnn(C/C=C/c4ccccc4)c3=O)cc2)CC1` (centres unmarked) [Compound 183] it was 31.6 to 316 nM.
Regarding `COc1ccc(NC(=O)C(c2ccccc2)N2CCN(c3ccc(-n4cnn(C(C)C)c4=O)cc3)CC2)c(OC)c1` (centres unmarked) [Compound 184], the 50% inhibitory concentration (IC50) was 31.6 to 316 nM.
Under `COc1ccccc1NC(=O)C(c1ccccc1)N1CCN(c2ccc(-n3cnn(C(C)C)c3=O)cc2)CC1` (centres unmarked) [Compound 185] stands 316 to 3160 nM.
As to `CC(C)n1ncn(-c2ccc(N3CCN(C(C(=O)Nc4ccc(F)cc4)c4ccccc4)CC3)cc2)c1=O` (centres unmarked) [Compound 186], the IC50 is 31.6 to 316 nM.
In the case of `CCOC(=O)C(c1ccccc1)N1CCN(c2ccc(-n3ccn(C(C)C)c3=O)cc2)CC1` (centres unmarked) [Compound 189] it was 316 to 3160 nM; in that of `CC(C)n1cnn(-c2ccc(N3CCN(C(C(=O)Nc4ccc5c(c4)CCC5)c4ccccc4)CC3)cc2)c1=O` (centres unmarked) [Compound 191], 31.6 to 316 nM; in that of `COC(=O)c1cccc(NC(=O)C(c2ccccc2)N2CCN(c3ccc(-n4cnn(C(C)C)c4=O)cc3)CC2)c1` (centres unmarked) [Compound 192], 31.6 to 316 nM.
In the case of `COC(=O)c1ccc(CNC(=O)C(c2ccccc2)N2CCN(c3ccc(-n4cnn(C(C)C)c4=O)cc3)CC2)cc1` (centres unmarked) [Compound 196] it was 316 to 3160 nM.
Turning to `CC(C)n1ncn(-c2ccc(N3CCN(C(C(=O)Nc4ccc5c(c4)-c4ccccc4C5)c4ccccc4)CC3)cc2)c1=O` (centres unmarked) [Compound 197], the IC50 is 31.6 to 316 nM.
In the case of `CC(C)n1ncn(-c2ccc(N3CCN(C(C(=O)Nc4ccc5c(c4)nc(-c4ccccc4)n5C)c4ccccc4)CC3)cc2)c1=O` (centres unmarked) [Compound 199] it was 316 to 3160 nM; in that of `CC(C)n1ncn(-c2ccc(N3CCN(C(C(=O)Nc4ccc5c(c4)OCO5)c4ccccc4)CC3)cc2)c1=O` (centres unmarked) [Compound 200], 31.6 to 316 nM; in that of `CC(C)n1ncn(-c2ccc(N3CCN(C(C(=O)Nc4ccc5c(c4)NCC5)c4ccccc4)CC3)cc2)c1=O` (centres unmarked) [Compound 201], 31.6 to 316 nM.
In the case of `CC(=O)N1CCc2ccc(NC(=O)C(c3ccccc3)N3CCN(c4ccc(-n5cnn(C(C)C)c5=O)cc4)CC3)cc21` (centres unmarked) [Compound 202] it was 31.6 to 316 nM; in that of `CC(C)N1CCN(c2ccc(N3CCN(C(C(=O)Nc4ccc5c(c4)CCC5)c4ccccc4)CC3)cc2)C1=O` (centres unmarked) [Compound 203], less than 31.6 nM; in that of `COC(=O)C(c1ccccc1)N1CCN(c2ccc(-n3cnn(C(C)c4ccccc4)c3=O)cc2)CC1` (centres unmarked) [Compound 204], 31.6 to 316 nM.
In the case of `CC(C)n1ccn(-c2ccc(N3CCN(C(C(=O)Nc4ccc5c(c4)CCC5)c4ccccc4)CC3)cc2)c1=O` (centres unmarked) [Compound 205] it was less than 31.6 nM; in that of `CCOC(=O)c1ccccc1NC(=O)C(c1ccccc1)N1CCN(c2ccc(-n3cnn(C(C)C)c3=O)cc2)CC1` (centres unmarked) [Compound 206], 31.6 to 316 nM.
Consider `CCC(C)n1nc(C)n(-c2ccc(N3CCC(C(C(=O)Nc4ccc5c(c4)CCC5)c4ccccc4)CC3)cc2)c1=O` (centres unmarked) [Compound 207], for which the IC50 was less than 31.6 nM.
For `CC(c1ccccc1)n1ncn(-c2ccc(N3CCN(C(C(=O)Nc4ccc5c(c4)CCC5)c4ccccc4)CC3)cc2)c1=O` (centres unmarked) [Compound 208], the IC50 is 316 to 3160 nM.
In the case of `O=C(Nc1ccc2c(c1)CCC2)C(c1ccccc1)C1CCN(c2ccc(-n3nc4ccccn4c3=O)cc2)CC1` (centres unmarked) [Compound 211] it was less than 31.6 nM.
Take `O=C(Nc1ccc2c(c1)CCC2)C(c1ccccc1)C1CCN(c2ccc(-n3ncn(Cc4ccccc4)c3=O)cc2)CC1` (centres unmarked) [Compound 212]: the IC50 is less than 31.6 nM.
Turning to `CC(C)n1ncn(-c2ccc(N3CCC(CC(=O)Nc4ccc5c(c4)CCC5)CC3)cc2)c1=O` [Compound 213], the IC50 is 316 to 3160 nM.
As for `Cc1cc(N2CCN(C(C(=O)Nc3ccc4c(c3)CCC4)c3ccccc3)CC2)ccc1-n1ccn(C(C)C)c1=O` (centres unmarked) [Compound 214], the IC50 was less than 31.6 nM.
In the case of `CC(C)n1ncn(-c2ccc(N3CCN(C(C(=O)Nc4ccc5c(c4)CCC5)c4ccccc4)CC3)c(Cl)c2)c1=O` (centres unmarked) [Compound 215] it was less than 31.6 nM.
On to `CC(C)n1ncn(-c2ccc(N3CCN(C(C(=O)Nc4ccc5c(c4)CCC5)c4ccccc4)CC3)c(F)c2)c1=O` (centres unmarked) [Compound 216], for which the IC50 is 31.6 to 316 nM.
In the case of `CCOC(=O)C(c1ccccc1)N1CCN(c2ccc(-n3cnn(C(C)C)c3=O)c(C)c2)CC1` (centres unmarked) [Compound 217], the concentration for half-maximal inhibition (IC50) was 31.6 to 316 nM.
In the case of `Cc1cc(N2CCN(C(C(=O)Nc3ccc4c(c3)CCC4)c3ccccc3)CC2)ccc1-n1cnn(C(C)C)c1=O` (centres unmarked) [Compound 218], the IC50 was less than 31.6 nM.
As to `CCOC(=O)C(c1ccccc1)N1CCN(c2ccc(N3CCN(C(C)C)C3=O)c(C)c2)CC1` (centres unmarked) [Compound 219], the half-maximal inhibitory concentration (IC50) is 316 to 3160 nM.
Under `Cc1cc(N2CCN(C(C(=O)Nc3ccc4c(c3)CCC4)c3ccccc3)CC2)ccc1N1CCN(C(C)C)C1=O` (centres unmarked) [Compound 220] stands less than 31.6 nM.
In the case of `CCOC(=O)C(c1ccccc1)N1CCC(c2ccc(-n3ccn(C(C)c4ccccc4)c3=O)cc2)CC1` (centres unmarked) [Compound 221] it was 31.6 to 316 nM.
Under `CCOC(=O)C(c1ccccc1)C1CCN(c2ccc(-n3ccn(C(C)c4ccccc4)c3=O)cc2)CC1` (centres unmarked) [Compound 222] stands 31.6 to 316 nM; under `CCOC(=O)C(c1ccccc1)N1CCC(c2ccc(-n3ccn([C@@H](C)c4ccc(F)cc4)c3=O)cc2)CC1` (some centres unmarked) [Compound 223], 316 to 3160 nM; under `CCOC(=O)C(c1ccccc1)N1CCC(c2ccc(-n3ccn([C@H](C)c4ccc(F)cc4)c3=O)cc2)CC1` (some centres unmarked) [Compound 224], 31.6 to 316 nM.
With `CCOC(=O)C(c1ccccc1)N1CCC(c2ccc(-n3ccn([C@H](C)c4cccc5ccccc45)c3=O)cc2)CC1` (some centres unmarked) [Compound 225], the IC50 was 31.6 to 316 nM.
